Where a name gives a salt, the structure may show the parent alone.
Columns and labels:
Conditions in all cases: exposure time: 72 h
[1] = test system: E13 (patient-derived glioblastoma stem cells of classical subtype); test: surviving fraction (nuclei count normalised to DMSO); higher = more cells surviving (less toxic)
[2] = test system: E21 (patient-derived glioblastoma stem cells of mesenchymal subtype); test: as above
[3] = test system: E28 (patient-derived glioblastoma stem cells of classical subtype); test: as above
[4] = test system: E31 (patient-derived glioblastoma stem cells of proneural subtype); test: as above
[5] = test system: E34 (patient-derived glioblastoma stem cells of proneural subtype); test: as above
[6] = test system: E57 (patient-derived glioblastoma stem cells of mesenchymal subtype); test: as above
[7] = test system: FT3469 (normal neural stem cell line); test: as above
[8] = test system: E13; test: phenotypic distance (Euclidean, principal components) from DMSO controls (arbitrary units); higher = stronger morphological change
[9] = test system: E21; test: as above
[10] = test system: E28; test: as above
[11] = test system: E31; test: as above
[12] = test system: E34; test: as above
[13] = test system: E57; test: as above
[14] = test system: FT3469; test: as above
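Throughout, for phenotypic distance (Euclidean, principal components) from DMSO controls: cell Painting imaging in 384-well plates, CellProfiler features reduced to at least 20 principal components, Euclidean distance versus same-plate DMSO vehicle wells (0.1% v/v), median over six images per well.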
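Throughout, for surviving fraction (nuclei count normalised to DMSO): nuclei counted by high-content imaging of Hoechst-stained cells in laminin-coated 384-well plates, relative to 0.1% DMSO vehicle wells, with staurosporine as cell-death control.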

**Q.** How did the surviving fraction ([1]; 4.1 nM) turn out when N=C(N)c1ccc(-c2ccc(-c3ccc(C(=N)N)cc3)o2)cc1 [Furamidine dihydrochloride] was run?
**A.** 0.977

**Q.** What about the surviving fraction ([1]; 12.3 nM) of the same compound?
**A.** 0.987

**Q.** And the surviving fraction ([1]; 37 nM)?
**A.** 0.954

**Q.** What about the surviving fraction ([1]; 111.1 nM) of the same compound?
**A.** 0.919

**Q.** What about the surviving fraction ([1]; 333.3 nM) of the same compound?
**A.** 1.02

**Q.** What about the surviving fraction ([1]; 1000 nM) of the same compound?
**A.** 1.1

**Q.** What about the surviving fraction ([1]; 3000 nM) of the same compound?
**A.** 1.07

**Q.** What about the surviving fraction ([2]; 4.1 nM) of the same compound?
**A.** 0.927

**Q.** What about the surviving fraction ([2]; 12.3 nM) of the same compound?
**A.** 0.912

**Q.** And the surviving fraction ([2]; 37 nM)?
**A.** 1

**Q.** What about the surviving fraction ([2]; 111.1 nM) of the same compound?
**A.** 1.01

**Q.** What about the surviving fraction ([2]; 333.3 nM) of the same compound?
**A.** 1.02

**Q.** What about the surviving fraction ([2]; 1000 nM) of the same compound?
**A.** 1.03

**Q.** And the surviving fraction ([2]; 3000 nM)?
**A.** 0.975

**Q.** And the surviving fraction ([3]; 4.1 nM)?
**A.** 0.932

**Q.** And the surviving fraction ([3]; 12.3 nM)?
**A.** 1.02

**Q.** And the surviving fraction ([3]; 37 nM)?
**A.** 0.995

**Q.** And the surviving fraction ([3]; 111.1 nM)?
**A.** 1.04

**Q.** And the surviving fraction ([3]; 333.3 nM)?
**A.** 0.901

**Q.** And the surviving fraction ([3]; 1000 nM)?
**A.** 1.05

**Q.** What about the surviving fraction ([3]; 3000 nM) of the same compound?
**A.** 0.861

**Q.** And the surviving fraction ([4]; 4.1 nM)?
**A.** 0.988

**Q.** And the surviving fraction ([4]; 12.3 nM)?
**A.** 0.965

**Q.** What about the surviving fraction ([4]; 37 nM) of the same compound?
**A.** 0.911

**Q.** What about the surviving fraction ([4]; 111.1 nM) of the same compound?
**A.** 1.08

**Q.** What about the surviving fraction ([4]; 333.3 nM) of the same compound?
**A.** 1.01

**Q.** And the surviving fraction ([4]; 1000 nM)?
**A.** 1.04

**Q.** And the surviving fraction ([4]; 3000 nM)?
**A.** 1.2

**Q.** And the surviving fraction ([5]; 4.1 nM)?
**A.** 0.983

**Q.** What about the surviving fraction ([5]; 12.3 nM) of the same compound?
**A.** 1.13

**Q.** And the surviving fraction ([5]; 37 nM)?
**A.** 1.1

**Q.** And the surviving fraction ([5]; 111.1 nM)?
**A.** 1.21

**Q.** What about the surviving fraction ([5]; 333.3 nM) of the same compound?
**A.** 1.2

**Q.** What about the surviving fraction ([5]; 1000 nM) of the same compound?
**A.** 1.09

**Q.** And the surviving fraction ([5]; 3000 nM)?
**A.** 1.2

**Q.** And the surviving fraction ([6]; 4.1 nM)?
**A.** 0.99

**Q.** And the surviving fraction ([6]; 12.3 nM)?
**A.** 0.991

**Q.** And the surviving fraction ([6]; 37 nM)?
**A.** 1.08

**Q.** What about the surviving fraction ([6]; 111.1 nM) of the same compound?
**A.** 0.988

**Q.** And the surviving fraction ([6]; 333.3 nM)?
**A.** 0.981

**Q.** And the surviving fraction ([6]; 1000 nM)?
**A.** 0.956

**Q.** And the surviving fraction ([6]; 3000 nM)?
**A.** 0.828

**Q.** What about the surviving fraction ([7]; 4.1 nM) of the same compound?
**A.** 0.904

**Q.** And the surviving fraction ([7]; 12.3 nM)?
**A.** 0.883

**Q.** What about the surviving fraction ([7]; 37 nM) of the same compound?
**A.** 0.856

**Q.** What about the surviving fraction ([7]; 111.1 nM) of the same compound?
**A.** 0.949

**Q.** What about the surviving fraction ([7]; 333.3 nM) of the same compound?
**A.** 1.12

**Q.** And the surviving fraction ([7]; 1000 nM)?
**A.** 1

**Q.** What about the surviving fraction ([7]; 3000 nM) of the same compound?
**A.** 1

**Q.** And the phenotypic distance ([8]; 4.1 nM)?
**A.** 0.262

**Q.** What about the phenotypic distance ([8]; 12.3 nM) of the same compound?
**A.** 0.642

**Q.** And the phenotypic distance ([8]; 37 nM)?
**A.** 0.687

**Q.** What about the phenotypic distance ([8]; 111.1 nM) of the same compound?
**A.** 0.7

**Q.** What about the phenotypic distance ([8]; 333.3 nM) of the same compound?
**A.** 1.05

**Q.** And the phenotypic distance ([8]; 1000 nM)?
**A.** 1.58

**Q.** What about the phenotypic distance ([8]; 3000 nM) of the same compound?
**A.** 2.41

**Q.** What about the phenotypic distance ([9]; 4.1 nM) of the same compound?
**A.** 2.21

**Q.** What about the phenotypic distance ([9]; 12.3 nM) of the same compound?
**A.** 0.291

**Q.** And the phenotypic distance ([9]; 37 nM)?
**A.** 0.446

**Q.** What about the phenotypic distance ([9]; 111.1 nM) of the same compound?
**A.** 0.567

**Q.** What about the phenotypic distance ([9]; 333.3 nM) of the same compound?
**A.** 1.09

**Q.** What about the phenotypic distance ([9]; 1000 nM) of the same compound?
**A.** 1.6

**Q.** And the phenotypic distance ([9]; 3000 nM)?
**A.** 3.09

**Q.** And the phenotypic distance ([10]; 4.1 nM)?
**A.** 0.942

**Q.** And the phenotypic distance ([10]; 12.3 nM)?
**A.** 0.731

**Q.** What about the phenotypic distance ([10]; 37 nM) of the same compound?
**A.** 0.378

**Q.** What about the phenotypic distance ([10]; 111.1 nM) of the same compound?
**A.** 0.509

**Q.** What about the phenotypic distance ([10]; 333.3 nM) of the same compound?
**A.** 0.894

**Q.** What about the phenotypic distance ([10]; 1000 nM) of the same compound?
**A.** 1.65

**Q.** And the phenotypic distance ([10]; 3000 nM)?
**A.** 3.07

**Q.** And the phenotypic distance ([11]; 4.1 nM)?
**A.** 0.537

**Q.** What about the phenotypic distance ([11]; 12.3 nM) of the same compound?
**A.** 0.559

**Q.** What about the phenotypic distance ([11]; 37 nM) of the same compound?
**A.** 0.53

**Q.** What about the phenotypic distance ([11]; 111.1 nM) of the same compound?
**A.** 0.588

**Q.** What about the phenotypic distance ([11]; 333.3 nM) of the same compound?
**A.** 0.79

**Q.** What about the phenotypic distance ([11]; 1000 nM) of the same compound?
**A.** 1.64

**Q.** What about the phenotypic distance ([11]; 3000 nM) of the same compound?
**A.** 2.69

**Q.** And the phenotypic distance ([12]; 4.1 nM)?
**A.** 0.516

**Q.** What about the phenotypic distance ([12]; 12.3 nM) of the same compound?
**A.** 0.962

**Q.** And the phenotypic distance ([12]; 37 nM)?
**A.** 0.515

**Q.** And the phenotypic distance ([12]; 111.1 nM)?
**A.** 0.866

**Q.** And the phenotypic distance ([12]; 333.3 nM)?
**A.** 1.16

**Q.** And the phenotypic distance ([12]; 1000 nM)?
**A.** 2.15

**Q.** And the phenotypic distance ([12]; 3000 nM)?
**A.** 3.96

**Q.** And the phenotypic distance ([13]; 4.1 nM)?
**A.** 0.435

**Q.** And the phenotypic distance ([13]; 12.3 nM)?
**A.** 0.369

**Q.** And the phenotypic distance ([13]; 37 nM)?
**A.** 0.461

**Q.** And the phenotypic distance ([13]; 111.1 nM)?
**A.** 0.581

**Q.** What about the phenotypic distance ([13]; 333.3 nM) of the same compound?
**A.** 0.809

**Q.** What about the phenotypic distance ([13]; 1000 nM) of the same compound?
**A.** 1.18

**Q.** And the phenotypic distance ([13]; 3000 nM)?
**A.** 2

**Q.** What about the phenotypic distance ([14]; 4.1 nM) of the same compound?
**A.** 0.956

**Q.** And the phenotypic distance ([14]; 12.3 nM)?
**A.** 0.513

**Q.** And the phenotypic distance ([14]; 37 nM)?
**A.** 0.833

**Q.** What about the phenotypic distance ([14]; 111.1 nM) of the same compound?
**A.** 0.595

**Q.** And the phenotypic distance ([14]; 333.3 nM)?
**A.** 0.891

**Q.** And the phenotypic distance ([14]; 1000 nM)?
**A.** 1.39

**Q.** And the phenotypic distance ([14]; 3000 nM)?
**A.** 3.24

— the supplement of paper PMC13207355
